Assay results taken from ChEMBL document CHEMBL3739359, “New substituted 9-propyladenine derivatives as A2Aadenosine receptor antagonists” (Medchemcomm, 2015).
pKi: −log10 of the molar value.

Experiments:
[1] = target: T1, Adenosine receptor A1 (Homo sapiens, UniProt P30542); assay: Displacement of [3H]CCPA from human adenosine A1 receptor expressed in CHO cells; assay type: cell-based
T1 sequence (P30542 whole entry): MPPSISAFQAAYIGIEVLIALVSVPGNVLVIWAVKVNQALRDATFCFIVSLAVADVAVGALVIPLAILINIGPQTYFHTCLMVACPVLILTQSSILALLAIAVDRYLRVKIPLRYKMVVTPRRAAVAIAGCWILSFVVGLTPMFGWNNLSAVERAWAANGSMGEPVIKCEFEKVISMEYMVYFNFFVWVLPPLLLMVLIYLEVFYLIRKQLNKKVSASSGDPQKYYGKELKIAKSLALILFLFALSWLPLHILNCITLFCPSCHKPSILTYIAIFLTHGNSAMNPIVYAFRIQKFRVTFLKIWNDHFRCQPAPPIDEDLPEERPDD

[2] = target: T2, Adenosine receptor A2a (Homo sapiens, UniProt P29274); assay: Displacement of [3H]NECA from human adenosine A2A receptor expressed in CHO cells; assay type: cell-based
T2 sequence (P29274 whole entry): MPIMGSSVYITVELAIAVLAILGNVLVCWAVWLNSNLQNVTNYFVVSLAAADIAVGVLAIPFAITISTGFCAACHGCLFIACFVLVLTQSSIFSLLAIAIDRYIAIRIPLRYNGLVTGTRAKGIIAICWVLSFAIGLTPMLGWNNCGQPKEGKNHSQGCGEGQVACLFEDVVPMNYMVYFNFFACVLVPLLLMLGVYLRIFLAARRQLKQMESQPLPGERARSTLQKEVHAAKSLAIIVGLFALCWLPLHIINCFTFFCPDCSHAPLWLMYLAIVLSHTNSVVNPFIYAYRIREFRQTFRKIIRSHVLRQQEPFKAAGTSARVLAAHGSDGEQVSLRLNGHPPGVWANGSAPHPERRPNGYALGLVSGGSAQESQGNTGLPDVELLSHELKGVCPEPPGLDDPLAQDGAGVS

[3] = target: T3, Adenosine receptor A2b (Homo sapiens, UniProt P29275); assay: Antagonist activity at human adenosine A2B receptor expressed in CHO cells assessed as inhibition of NECA-stimulated adenylyl cyclase activity; assay type: functional, cell-based
T3 sequence (P29275 whole entry): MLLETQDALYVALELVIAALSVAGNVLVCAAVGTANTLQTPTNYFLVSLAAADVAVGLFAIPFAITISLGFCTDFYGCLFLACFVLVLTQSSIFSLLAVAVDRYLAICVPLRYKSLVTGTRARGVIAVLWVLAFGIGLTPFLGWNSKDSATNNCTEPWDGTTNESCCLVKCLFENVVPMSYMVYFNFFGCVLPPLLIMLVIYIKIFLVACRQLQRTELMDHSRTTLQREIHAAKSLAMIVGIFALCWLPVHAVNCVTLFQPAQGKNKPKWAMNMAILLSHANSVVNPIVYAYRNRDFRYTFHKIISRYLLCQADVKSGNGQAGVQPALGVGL

[4] = target: T4, Adenosine receptor A3 (Homo sapiens, UniProt P0DMS8); assay: Displacement of [3H]HEMADO from human adenosine A3 receptor expressed in CHO cells; assay type: cell-based
T4 sequence (P0DMS8 whole entry, looked up): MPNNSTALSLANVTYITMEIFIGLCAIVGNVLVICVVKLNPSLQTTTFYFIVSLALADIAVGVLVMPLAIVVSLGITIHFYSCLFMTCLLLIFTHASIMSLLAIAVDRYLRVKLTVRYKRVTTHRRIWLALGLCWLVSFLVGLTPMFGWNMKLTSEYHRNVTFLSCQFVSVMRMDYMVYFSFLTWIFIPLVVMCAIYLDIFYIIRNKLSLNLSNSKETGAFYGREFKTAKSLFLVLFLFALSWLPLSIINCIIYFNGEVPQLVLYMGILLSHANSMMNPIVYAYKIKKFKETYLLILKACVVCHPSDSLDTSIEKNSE

[5] = target: T1, Adenosine receptor A1; assay: Binding affinity to adenosine A1 receptor (unknown origin)
[6] = target: T2, Adenosine receptor A2a; assay: Binding affinity to adenosine A2A receptor (unknown origin)
[7] = target: T3, Adenosine receptor A2b; assay: Binding affinity to adenosine A2B receptor (unknown origin)
[8] = target: T4, Adenosine receptor A3; assay: Binding affinity to adenosine A3 receptor (unknown origin)
[9] = organism: Homo sapiens; assay: Selectivity ratio of Ki for adenosine A1 receptor (unknown origin) to Ki for adenosine A2A receptor (unknown origin)

pKi [1]	pKi [2]	pKi [3]	pKi [4]	pKi [5]	pKi [6]	pKi [7]	pKi [8]	Ratio Ki [9]	Compound
6.45	7.44	5.76	6.19	–	–	–	–	–	CCCn1c(Br)nc2c(N)nc(NCc3ccccc3)nc21
–	–	–	–	5.06	5.87	5.09	4.97	–	CCn1cnc2c(NCCc3ccccc3)ncnc21
6.26	7.10	5.75	6.40	–	–	–	–	–	CCCn1c(-c2ccco2)nc2c(NCc3ccccc3)ncnc21
–	–	–	< 4.00	–	–	–	–	–	CCCn1c(Br)nc2c(N)ncnc21
4.73	4.89	< 4.52	4.52	–	–	–	–	–	CCCn1cnc2c(NCCCc3ccccc3)ncnc21
7.10	7.85	5.69	7.25	–	–	–	–	–	CCCn1c(-c2ccco2)nc2c(N)nc(NCCc3ccccc3)nc21
6.42	6.74	5.73	6.02	–	–	–	–	–	CCCn1c(-c2ccco2)nc2c(NCCCc3ccccc3)ncnc21
5.57	5.99	5.75	4.91	–	–	–	–	–	CCCn1c(Br)nc2c(NCCCc3ccccc3)ncnc21
5.61	6.26	5.03	6.09	–	–	–	–	–	CCCn1c(-c2ccco2)nc2c(NCCc3ccccc3)ncnc21
6.86	8.18	5.34	7.54	–	–	–	–	–	CCCn1c(-c2ccco2)nc2c(N)nc(NCc3ccccc3)nc21
6.64	6.95	5.08	6.58	–	–	–	–	–	CCCn1c(-c2ccco2)nc2c(N)nc(NCCCc3ccccc3)nc21
–	–	–	–	6.48	6.82	5.62	5.49	–	CCn1cnc2c(N)nc(NCCc3ccccc3)nc21
5.25	5.93	5.13	4.95	–	–	–	–	–	CCCn1c(Br)nc2c(NCc3ccccc3)ncnc21
5.44	5.04	< 4.52	4.90	–	–	–	–	–	CCCn1cnc2c(N)nc(NCCCc3ccccc3)nc21
6.23	6.55	5.20	5.71	–	–	–	–	–	CCCn1c(Br)nc2c(N)nc(NCCCc3ccccc3)nc21
5.71	6.30	5.50	5.60	–	–	–	–	–	CCCn1c(Br)nc2c(NCCc3ccccc3)ncnc21
4.72	4.92	< 4.52	4.77	–	–	–	–	–	CCCn1cnc2c(NCCc3ccccc3)ncnc21
4.37	4.65	< 4.52	4.54	–	–	–	–	–	CCCn1cnc2c(NCc3ccccc3)ncnc21
5.12	5.85	< 4.52	5.23	–	–	–	–	–	CCCn1cnc2c(N)nc(NCc3ccccc3)nc21
–	–	–	–	–	–	–	–	6	CCn1c(-c2ccco2)nc2c(N)ncnc21
–	–	–	< 4.00	–	–	–	–	–	CCCn1cnc2c(N)ncnc21
6.43	7.57	5.83	5.94	–	–	–	–	–	CCCn1c(Br)nc2c(N)nc(NCCc3ccccc3)nc21
5.63	6.13	5.03	5.23	–	–	–	–	–	CCCn1cnc2c(N)nc(NCCc3ccccc3)nc21
